The values that follow come from ChEMBL document CHEMBL4665643 (Bioorg Med Chem Lett, 2019).

What is called inhibition is the change of the read-out against control, counted positive when it falls.

Experiment [1] addresses Serine/threonine-protein kinase mTOR (Homo sapiens) (UniProt P42345). As to the kind of experiment: Inhibition of recombinant human GST-tagged mTOR (1360 to 2549 residues) expressed in Escherichia coli expression system using Ser/Thr 11 as substrate at 0.1 uM incubated for 60 mins by Z'-Lyte assay relative to control.
The target in experiment [2] is Serine/threonine-protein kinase pim-2 (Homo sapiens) (UniProt Q9P1W9). As to the kind of experiment: Inhibition of recombinant human GST-tagged full length PIM2 expressed in baculovirus expression system using Ser/Thr 07 as substrate at 0.1 uM incubated for 60 mins by Z'-lyte assay relative to control.
Chain of Serine/threonine-protein kinase pim-2 (Homo sapiens) (Q9P1W9 whole entry, looked up): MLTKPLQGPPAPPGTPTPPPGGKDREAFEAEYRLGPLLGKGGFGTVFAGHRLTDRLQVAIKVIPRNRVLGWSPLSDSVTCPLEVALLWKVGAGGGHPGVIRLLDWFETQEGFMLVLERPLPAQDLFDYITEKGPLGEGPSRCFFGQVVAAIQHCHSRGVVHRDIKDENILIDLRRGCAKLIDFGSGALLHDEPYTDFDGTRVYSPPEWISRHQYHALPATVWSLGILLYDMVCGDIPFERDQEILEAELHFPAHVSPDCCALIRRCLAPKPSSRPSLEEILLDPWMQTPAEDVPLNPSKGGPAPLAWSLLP
For experiment [3], the target named is Tyrosine-protein kinase JAK1 (Homo sapiens, UniProt P23458). Particulars: dose 0.1 µM, time 60.0 min.
Chain of Tyrosine-protein kinase JAK1 (P23458 whole entry, the tested form may be a part): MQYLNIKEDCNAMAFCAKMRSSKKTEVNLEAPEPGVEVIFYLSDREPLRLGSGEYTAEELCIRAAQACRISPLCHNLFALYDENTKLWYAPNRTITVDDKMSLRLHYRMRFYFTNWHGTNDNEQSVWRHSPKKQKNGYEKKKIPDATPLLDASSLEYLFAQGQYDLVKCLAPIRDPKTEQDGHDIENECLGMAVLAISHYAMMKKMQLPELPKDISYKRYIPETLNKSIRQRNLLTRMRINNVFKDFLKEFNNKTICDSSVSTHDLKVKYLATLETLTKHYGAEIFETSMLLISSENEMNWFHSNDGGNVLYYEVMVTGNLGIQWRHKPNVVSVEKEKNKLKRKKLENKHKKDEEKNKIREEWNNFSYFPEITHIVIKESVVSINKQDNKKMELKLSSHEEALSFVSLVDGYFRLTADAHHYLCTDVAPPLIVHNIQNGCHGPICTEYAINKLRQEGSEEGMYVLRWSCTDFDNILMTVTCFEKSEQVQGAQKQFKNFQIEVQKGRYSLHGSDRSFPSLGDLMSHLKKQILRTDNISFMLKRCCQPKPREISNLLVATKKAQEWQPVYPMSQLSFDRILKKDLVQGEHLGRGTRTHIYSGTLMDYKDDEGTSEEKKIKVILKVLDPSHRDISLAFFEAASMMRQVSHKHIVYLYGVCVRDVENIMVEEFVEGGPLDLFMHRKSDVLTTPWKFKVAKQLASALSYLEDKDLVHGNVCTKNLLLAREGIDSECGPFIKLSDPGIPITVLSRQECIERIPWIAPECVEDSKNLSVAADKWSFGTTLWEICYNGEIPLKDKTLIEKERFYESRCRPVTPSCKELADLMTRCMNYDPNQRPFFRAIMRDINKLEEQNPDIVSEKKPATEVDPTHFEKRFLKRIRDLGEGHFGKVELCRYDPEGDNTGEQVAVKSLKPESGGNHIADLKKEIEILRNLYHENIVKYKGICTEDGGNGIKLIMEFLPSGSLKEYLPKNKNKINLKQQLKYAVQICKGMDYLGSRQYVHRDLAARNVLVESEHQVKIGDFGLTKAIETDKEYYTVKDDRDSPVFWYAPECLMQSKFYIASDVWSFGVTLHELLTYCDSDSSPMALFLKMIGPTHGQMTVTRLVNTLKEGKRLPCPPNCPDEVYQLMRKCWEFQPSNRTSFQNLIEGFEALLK
Experiment [4] addresses Myosin light chain kinase, smooth muscle (Homo sapiens) (UniProt Q15746). In words: Inhibition of tracer 236 binding to recombinant human GST-tagged MYLK (1428 to 1771 residues) expressed in baculovirus expression system at 0.1 uM incubated for 60 mins by Lanthascreen assay relative to control.
Experiment [5] addresses T1, Tyrosine-protein kinase JAK3 (Homo sapiens) (UniProt P52333).
T1 sequence (whole entry): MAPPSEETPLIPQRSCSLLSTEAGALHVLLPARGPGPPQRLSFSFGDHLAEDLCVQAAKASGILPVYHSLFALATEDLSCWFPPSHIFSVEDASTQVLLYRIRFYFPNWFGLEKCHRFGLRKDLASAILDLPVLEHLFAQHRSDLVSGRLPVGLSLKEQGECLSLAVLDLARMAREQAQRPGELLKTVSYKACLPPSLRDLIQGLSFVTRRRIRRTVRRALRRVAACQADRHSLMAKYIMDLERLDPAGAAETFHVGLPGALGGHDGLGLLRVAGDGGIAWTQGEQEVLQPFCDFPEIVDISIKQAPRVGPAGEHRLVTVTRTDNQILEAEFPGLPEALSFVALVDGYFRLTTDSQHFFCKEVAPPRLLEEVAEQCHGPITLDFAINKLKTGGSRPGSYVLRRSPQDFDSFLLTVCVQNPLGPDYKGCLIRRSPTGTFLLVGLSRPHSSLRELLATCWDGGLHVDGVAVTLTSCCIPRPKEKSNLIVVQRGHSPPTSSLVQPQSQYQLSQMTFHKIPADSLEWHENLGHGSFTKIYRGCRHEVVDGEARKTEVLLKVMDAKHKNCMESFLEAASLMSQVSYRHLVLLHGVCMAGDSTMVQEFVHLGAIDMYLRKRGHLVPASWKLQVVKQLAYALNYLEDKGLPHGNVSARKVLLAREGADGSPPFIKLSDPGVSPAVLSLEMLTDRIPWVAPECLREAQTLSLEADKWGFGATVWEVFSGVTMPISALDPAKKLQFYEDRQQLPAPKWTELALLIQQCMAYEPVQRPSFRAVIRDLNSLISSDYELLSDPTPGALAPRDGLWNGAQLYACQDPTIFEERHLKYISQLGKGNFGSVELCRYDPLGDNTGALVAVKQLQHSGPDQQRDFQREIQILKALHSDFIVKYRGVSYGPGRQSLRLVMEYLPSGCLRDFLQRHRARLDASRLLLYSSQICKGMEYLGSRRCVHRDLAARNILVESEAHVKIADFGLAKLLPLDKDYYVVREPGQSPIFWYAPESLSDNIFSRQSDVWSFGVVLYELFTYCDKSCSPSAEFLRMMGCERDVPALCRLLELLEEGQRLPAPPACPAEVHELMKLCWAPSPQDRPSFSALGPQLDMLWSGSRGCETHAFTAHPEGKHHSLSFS
In words: Inhibition of recombinant human GST-tagged JAK3 (781 to 1124 residues) expressed in baculovirus expression system using Tyr 06 as substrate at 0.1 uM incubated for 60 mins by Z'-lyte assay relative to control.

Experiment [6] addresses Tyrosine-protein kinase CSK (Homo sapiens) (UniProt P41240). In words: Inhibition of recombinant human GST-tagged full length CSK expressed in Escherichia coli expression system using Tyr 02 as substrate at 0.1 uM incubated for 60 mins by Z'-Lyte assay relative to control.
In experiment [7] the target is Mitogen-activated protein kinase 3 (Homo sapiens) (UniProt P27361). In words: Inhibition of recombinant human GST-tagged full length ERK1 expressed in Escherichia coli expression system using Ser/Thr 03 as substrate at 0.1 uM incubated for 60 mins by Z'-Lyte assay relative to control.
Chain of Mitogen-activated protein kinase 3 (Homo sapiens) (P27361 whole entry, the tested form may be a part): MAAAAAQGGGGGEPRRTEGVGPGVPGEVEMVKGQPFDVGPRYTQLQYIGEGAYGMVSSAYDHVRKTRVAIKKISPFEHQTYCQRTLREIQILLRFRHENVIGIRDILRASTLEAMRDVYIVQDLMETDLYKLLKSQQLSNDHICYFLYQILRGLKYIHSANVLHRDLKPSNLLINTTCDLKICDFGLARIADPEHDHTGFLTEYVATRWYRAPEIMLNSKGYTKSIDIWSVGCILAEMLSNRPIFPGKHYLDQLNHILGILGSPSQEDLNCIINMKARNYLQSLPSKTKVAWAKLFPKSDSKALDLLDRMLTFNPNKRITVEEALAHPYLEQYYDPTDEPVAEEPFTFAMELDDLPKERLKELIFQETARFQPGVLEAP
Experiment [8] deals with Non-receptor tyrosine-protein kinase TYK2 (Homo sapiens) (UniProt P29597). As to the kind of experiment: Inhibition of recombinant human N-terminal GST-tagged TYK2 (833 to 1187 residues) expressed in baculovirus expression system using Tyr 03 as substrate at 0.1 uM incubated for 60 mins by Z'-Lyte assay relative to control.
Experiment [9] deals with Insulin-like growth factor 1 receptor (Homo sapiens) (UniProt P08069). As to the kind of experiment: Inhibition of recombinant human His-tagged IGF1R (960 to 1397 residues) expressed in baculovirus expression system using Tyr 01 as substrate at 0.1 uM incubated for 60 mins by Z'-Lyte assay relative to control.
Experiment [10] has as its target Ephrin type-A receptor 4 (Homo sapiens) (UniProt P54764). As to the kind of experiment: Inhibition of recombinant human GST-tagged EPHA4 (616 to 887 residues) expressed in baculovirus expression system using Tyr 02 as substrate at 0.1 uM incubated for 60 mins by Z'-Lyte assay relative to control.
Experiment [11] addresses T2, cGMP-dependent protein kinase 1 (Homo sapiens) (UniProt Q13976).
T2 sequence (whole entry): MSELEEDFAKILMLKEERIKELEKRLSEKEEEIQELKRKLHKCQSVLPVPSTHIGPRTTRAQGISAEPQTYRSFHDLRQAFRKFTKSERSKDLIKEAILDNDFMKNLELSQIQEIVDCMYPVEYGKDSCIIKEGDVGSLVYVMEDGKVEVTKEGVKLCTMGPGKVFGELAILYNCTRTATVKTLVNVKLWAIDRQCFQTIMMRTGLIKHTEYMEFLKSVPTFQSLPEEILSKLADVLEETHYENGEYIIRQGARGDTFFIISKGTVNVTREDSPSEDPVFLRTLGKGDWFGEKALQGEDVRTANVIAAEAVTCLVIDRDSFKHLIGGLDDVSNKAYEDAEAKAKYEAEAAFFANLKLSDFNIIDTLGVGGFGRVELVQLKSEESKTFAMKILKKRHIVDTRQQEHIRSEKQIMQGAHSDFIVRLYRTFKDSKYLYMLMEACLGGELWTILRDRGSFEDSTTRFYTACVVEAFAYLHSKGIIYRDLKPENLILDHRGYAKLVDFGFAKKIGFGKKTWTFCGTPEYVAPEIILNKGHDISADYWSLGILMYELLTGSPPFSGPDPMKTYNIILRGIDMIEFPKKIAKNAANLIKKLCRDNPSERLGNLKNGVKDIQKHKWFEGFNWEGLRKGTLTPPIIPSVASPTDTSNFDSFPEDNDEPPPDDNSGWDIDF
In words: Inhibition of recombinant human GST-tagged full length PKG1 alpha expressed in baculovirus expression system using Ser/Thr 01 as substrate at 0.1 uM incubated for 60 mins by Z'-Lyte assay relative to control.

Chain of Tyrosine-protein kinase CSK (Homo sapiens) (P41240 2-450 limits assumed): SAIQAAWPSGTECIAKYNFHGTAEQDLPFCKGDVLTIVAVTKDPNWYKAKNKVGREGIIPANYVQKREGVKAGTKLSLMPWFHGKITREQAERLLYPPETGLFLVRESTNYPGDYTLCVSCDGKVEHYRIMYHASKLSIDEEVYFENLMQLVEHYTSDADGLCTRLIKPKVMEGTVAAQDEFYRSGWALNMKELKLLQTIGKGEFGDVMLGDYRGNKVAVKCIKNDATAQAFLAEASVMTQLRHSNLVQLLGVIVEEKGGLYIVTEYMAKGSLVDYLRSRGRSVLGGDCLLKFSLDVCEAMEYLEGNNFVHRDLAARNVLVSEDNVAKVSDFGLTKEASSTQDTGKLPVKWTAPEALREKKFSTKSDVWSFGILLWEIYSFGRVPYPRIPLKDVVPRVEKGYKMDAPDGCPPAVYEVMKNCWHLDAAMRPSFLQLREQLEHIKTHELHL
Chain of Myosin light chain kinase, smooth muscle (Homo sapiens) (Q15746 whole entry, the tested form may be a part): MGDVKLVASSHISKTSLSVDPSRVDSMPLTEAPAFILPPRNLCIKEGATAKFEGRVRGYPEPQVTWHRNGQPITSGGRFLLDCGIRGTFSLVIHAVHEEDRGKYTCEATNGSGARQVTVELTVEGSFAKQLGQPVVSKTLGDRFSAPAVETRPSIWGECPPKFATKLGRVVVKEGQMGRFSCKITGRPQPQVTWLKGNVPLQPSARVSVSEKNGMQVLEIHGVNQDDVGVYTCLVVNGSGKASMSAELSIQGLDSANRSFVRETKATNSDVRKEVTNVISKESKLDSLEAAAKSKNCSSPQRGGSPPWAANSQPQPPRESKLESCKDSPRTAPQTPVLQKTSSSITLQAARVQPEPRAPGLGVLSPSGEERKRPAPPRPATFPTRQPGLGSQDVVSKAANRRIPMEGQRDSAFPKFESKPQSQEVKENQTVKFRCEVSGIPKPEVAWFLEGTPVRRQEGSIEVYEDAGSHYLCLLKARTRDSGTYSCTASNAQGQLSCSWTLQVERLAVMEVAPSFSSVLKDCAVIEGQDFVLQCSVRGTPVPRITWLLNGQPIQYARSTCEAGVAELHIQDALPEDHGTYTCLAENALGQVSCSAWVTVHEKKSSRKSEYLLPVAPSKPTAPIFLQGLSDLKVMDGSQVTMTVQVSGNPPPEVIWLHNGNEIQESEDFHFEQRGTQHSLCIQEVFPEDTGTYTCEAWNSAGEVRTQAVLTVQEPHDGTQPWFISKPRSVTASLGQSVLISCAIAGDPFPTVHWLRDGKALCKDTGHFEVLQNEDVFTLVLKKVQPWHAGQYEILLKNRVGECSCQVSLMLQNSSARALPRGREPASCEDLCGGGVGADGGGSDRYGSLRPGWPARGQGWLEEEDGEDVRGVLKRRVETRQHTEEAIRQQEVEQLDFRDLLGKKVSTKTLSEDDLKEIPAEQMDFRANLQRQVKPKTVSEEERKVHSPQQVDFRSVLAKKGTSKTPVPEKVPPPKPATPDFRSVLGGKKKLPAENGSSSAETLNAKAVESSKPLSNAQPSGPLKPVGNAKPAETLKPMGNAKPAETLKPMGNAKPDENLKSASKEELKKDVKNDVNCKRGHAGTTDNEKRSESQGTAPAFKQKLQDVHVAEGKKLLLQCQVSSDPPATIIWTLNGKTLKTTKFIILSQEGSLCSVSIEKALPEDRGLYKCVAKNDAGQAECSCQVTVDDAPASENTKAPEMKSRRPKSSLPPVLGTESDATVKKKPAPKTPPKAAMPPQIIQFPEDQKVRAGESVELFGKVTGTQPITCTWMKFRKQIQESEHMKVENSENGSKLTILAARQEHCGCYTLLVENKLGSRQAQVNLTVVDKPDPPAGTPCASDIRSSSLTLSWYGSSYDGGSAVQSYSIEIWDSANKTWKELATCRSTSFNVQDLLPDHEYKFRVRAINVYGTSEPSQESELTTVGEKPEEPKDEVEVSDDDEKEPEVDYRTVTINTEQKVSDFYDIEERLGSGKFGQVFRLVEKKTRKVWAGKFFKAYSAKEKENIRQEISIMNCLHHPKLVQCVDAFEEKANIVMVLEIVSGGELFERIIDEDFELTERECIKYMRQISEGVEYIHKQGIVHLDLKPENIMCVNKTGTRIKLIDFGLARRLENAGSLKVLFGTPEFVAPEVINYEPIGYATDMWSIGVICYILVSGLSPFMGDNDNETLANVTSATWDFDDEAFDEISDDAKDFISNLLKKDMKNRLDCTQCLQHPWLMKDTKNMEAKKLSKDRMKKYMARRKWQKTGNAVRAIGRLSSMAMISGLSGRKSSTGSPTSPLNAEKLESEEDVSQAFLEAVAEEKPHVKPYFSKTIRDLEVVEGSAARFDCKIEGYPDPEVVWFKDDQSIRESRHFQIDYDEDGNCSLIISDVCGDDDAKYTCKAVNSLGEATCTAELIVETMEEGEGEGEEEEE

Take `Cn1cc(NC(=O)c2cnn3cccnc23)c(-c2cc(Cl)ccc2OC(F)F)n1`: the inhibition is -3% in experiment [1]; 2% in experiment [2]; 96% in experiment [3]; 11% in [4]; 98% in experiment [5]; 2% in [6]. The inhibition in experiment [7] came out at 4%; in experiment [8] it was 98%; in experiment [9] it was 8%; in [10] it was 4%; in experiment [11] it was 4%.
In the case of `O=C(Nc1c[nH]nc1-c1cc2ccccc2cc1OC(F)F)c1cnn2cccnc12`, the inhibition in experiment [1] is 5%; in experiment [2], -1%; in experiment [3] it was 96%; in experiment [4] it was 0%; in [5] it was 94%; in experiment [6], 3%. The inhibition was determined as 0% in [7]; 95% in experiment [8]; 5% in [9]; 3% in experiment [10]; 3% in experiment [11].
For `O=C(Nc1c[nH]nc1-c1cc(Cl)ccc1OC(F)F)c1cnn2cccnc12`, the inhibition is 1% in experiment [1]; 18% in [2]; 100% in experiment [3]; 2% in experiment [4]; 95% in experiment [5]; -2% in experiment [6]. In addition, the inhibition was 5% in experiment [7]; 100% in experiment [8]; 9% in experiment [9]; -4% in experiment [10]; 0% in experiment [11].
